Test results taken from patent US20230330093A1, “APPLICATION OF NITROGEN-CONTAINING SATURATED HETEROCYCLIC COMPOUND” (SHANGHAI PHARMACEUTICALS HOLDING CO., LTD., priority 2020, published 2023).

Test system: cynomolgus monkeys
Experiment: 4-week safety study: hematology and coagulation
Assay type: in vivo
Method: […] (1) Hematological and coagulation index examination were performed using a Bayer ADVIA2120 (Germany) and a Sysmex CA-1500 (Japan). (2) The serum biochemical examination was assessed using a HITACHI 7080 automated analyzer (Japan) and an Easylyte PLUS electrolyte analyzer (MEDICA, America). (3) The 24-h pooled urine of each animal was collected by a tray under each cage. Urinalysis was carried out using Uritest-300 (China). (4) The 24-h pooled faeces of each monkey were collected by a tray under each cage. Fecal occult blood was detected. (5) ACCESS 2 Chemiluminescence immunoassay was used for myocardial troponin (TropI, non-GLP) test.

[1] = all treated females and high-dose males

Structure (SMILES): COC(=O)NCCCn1nc([C@@H](C)N(C(=O)[C@H]2CNCCO2)C2CC2)c2ccc(C)nc21 [compound of Formula I]
- APTT (Female, 20 mg/kg, d0): 16.7 ± 0.8 s
- Fbg (Female, 20 mg/kg, d0): 2.0 ± 0.3 g/L
- LYMPH (Female, 20 mg/kg, d0): 51.3 ± 18.0%
- NEUT (Female, 20 mg/kg, d0): 42.5 ± 18.8%
- WBC (Female, 20 mg/kg, d0): 15.3 ± 3.6 ×10^9 · L^−1
- APTT (Female, 20 mg/kg, d14): 15.9 ± 1.0 s
- Fbg (Female, 20 mg/kg, d14): 2.9 ± 0.9 g/L
- LYMPH (Female, 20 mg/kg, d14): 40.8 ± 11.3%
- NEUT (Female, 20 mg/kg, d14): 52.5 ± 10.4%
- WBC (Female, 20 mg/kg, d14): 16.0 ± 3.9 ×10^9 · L^−1
- APTT (Female, 20 mg/kg, d26): 18.3 ± 1.4 s
- Fbg (Female, 20 mg/kg, d26): 2.8 ± 0.9 g/L
- LYMPH (Female, 20 mg/kg, d26): 33.1 ± 12.8 %
- NEUT (Female, 20 mg/kg, d26): 61.4 ± 13.2 %
- WBC (Female, 20 mg/kg, d26): 19.1 ± 4.0 ×10^9 · L^−1
- APTT (Female, 20 mg/kg, d 56): 16.4 ± 1.1 s
- Fbg (Female, 20 mg/kg, d 56): 1.7 ± 0.5 g/L
- LYMPH (Female, 20 mg/kg, d 56): 53.1 ± 7.4%
- NEUT (Female, 20 mg/kg, d 56): 38.1 ± 7.1%
- WBC (Female, 20 mg/kg, d 56): 12.4 ± 1.6 ×10^9 · L^−1
- APTT (Female, 100 mg/kg, d0): 15.0 ± 1.6 s
- Fbg (Female, 100 mg/kg, d0): 1.9 ± 0.4 g/L
- LYMPH (Female, 100 mg/kg, d0): 44.0 ± 16.5%
- NEUT (Female, 100 mg/kg, d0): 50.5 ± 17.3%
- WBC (Female, 100 mg/kg, d0): 10.9 ± 2.9 ×10^9 · L^−1
- APTT (Female, 100 mg/kg, d14): 14.5 ± 0.9 s
- Fbg (Female, 100 mg/kg, d14): 2.5 ± 0.4 g/L
- LYMPH (Female, 100 mg/kg, d14): 33.2 ± 4.4 %
- NEUT (Female, 100 mg/kg, d14): 59.5 ± 5.3 %
- WBC (Female, 100 mg/kg, d14): 14.0 ± 4.0 ×10^9 · L^−1
- APTT (Female, 100 mg/kg, d26): 19.7 ± 2.2 s
- Fbg (Female, 100 mg/kg, d26): 3.5 ± 0.8 g/L
- LYMPH (Female, 100 mg/kg, d26): 30.0 ± 6.8 %
- NEUT (Female, 100 mg/kg, d26): 63.2 ± 6.4 %
- WBC (Female, 100 mg/kg, d26): 15.9 ± 6.2 ×10^9 · L^−1
- APTT (Female, 100 mg/kg, d 56): 15.8 ± 1.5 s
- Fbg (Female, 100 mg/kg, d 56): 2.1 ± 0.3 g/L
- LYMPH (Female, 100 mg/kg, d 56): 48.7 ± 0.6%
- NEUT (Female, 100 mg/kg, d 56): 45.2 ± 2.3%
- WBC (Female, 100 mg/kg, d 56): 9.9 ± 1.0 ×10^9 · L^−1
- APTT (Female, 450 mg/kg, d0): 16.9 ± 1.4 s
- Fbg (Female, 450 mg/kg, d0): 1.8 ± 0.3 g/L
- LYMPH (Female, 450 mg/kg, d0): 51.8 ± 12.2%
- NEUT (Female, 450 mg/kg, d0): 43.3 ± 12.3%
- WBC (Female, 450 mg/kg, d0): 14.4 ± 1.7 ×10^9 · L^−1
- APTT (Female, 450 mg/kg, d14): 18.6 ± 0.8 s
- Fbg (Female, 450 mg/kg, d14): 3.9 ± 0.8 g/L
- LYMPH (Female, 450 mg/kg, d14): 30.1 ± 14.3 %
- NEUT (Female, 450 mg/kg, d14): 63.5 ± 15.2 %
- WBC (Female, 450 mg/kg, d14): 16.9 ± 7.8 ×10^9 · L^−1
- APTT (Female, 450 mg/kg, d26): 20.1 ± 3.1 s
- Fbg (Female, 450 mg/kg, d26): 4.2 ± 0.7 g/L
- LYMPH (Female, 450 mg/kg, d26): 26.9 ± 8.9 %
- NEUT (Female, 450 mg/kg, d26): 67.5 ± 9.2 %
- WBC (Female, 450 mg/kg, d26): 18.1 ± 3.7 ×10^9 · L^−1
- APTT (Female, 450 mg/kg, d 56): 18.0 ± 3.5 s
- Fbg (Female, 450 mg/kg, d 56): 1.4 ± 0.0 g/L
- LYMPH (Female, 450 mg/kg, d 56): 53.3 ± 0.3%
- NEUT (Female, 450 mg/kg, d 56): 42.3 ± 0.6%
- WBC (Female, 450 mg/kg, d 56): 14.0 ± 4.9 ×10^9 · L^−1
- APTT (Male, 20 mg/kg, d0): 16.4 ± 1.1 s
- Fbg (Male, 20 mg/kg, d0): 2.1 ± 0.6 g/L
- LYMPH (Male, 20 mg/kg, d0): 55.3 ± 14.6%
- NEUT (Male, 20 mg/kg, d0): 39.9 ± 14.6%
- WBC (Male, 20 mg/kg, d0): 13.4 ± 2.5 ×10^9 · L^−1
- APTT (Male, 20 mg/kg, d14): 17.8 ± 2.7 s
- Fbg (Male, 20 mg/kg, d14): 3.2 ± 0.8 g/L
- LYMPH (Male, 20 mg/kg, d14): 51.1 ± 19.6%
- NEUT (Male, 20 mg/kg, d14): 43.1 ± 20.4%
- WBC (Male, 20 mg/kg, d14): 17.7 ± 9.3 ×10^9 · L^−1
- APTT (Male, 20 mg/kg, d26): 19.5 ± 2.4 s
- Fbg (Male, 20 mg/kg, d26): 2.2 ± 0.4 g/L
- LYMPH (Male, 20 mg/kg, d26): 59.5 ± 11.9%
- NEUT (Male, 20 mg/kg, d26): 35.1 ± 12.4%
- WBC (Male, 20 mg/kg, d26): 13.8 ± 6.5 ×10^9 · L^−1
- APTT (Male, 20 mg/kg, d 56): 21.3 ± 4.0 s
- Fbg (Male, 20 mg/kg, d 56): 3.1 ± 1.4 g/L
- LYMPH (Male, 20 mg/kg, d 56): 53.3 ± 14.3%
- NEUT (Male, 20 mg/kg, d 56): 38.5 ± 12.6%
- WBC (Male, 20 mg/kg, d 56): 20.1 ± 4.2 ×10^9 · L^−1
- APTT (Male, 100 mg/kg, d0): 16.6 ± 1.8 s
- Fbg (Male, 100 mg/kg, d0): 2.2 ± 0.3 g/L
- LYMPH (Male, 100 mg/kg, d0): 61.5 ± 16.2%
- NEUT (Male, 100 mg/kg, d0): 32.6 ± 18.2%
- WBC (Male, 100 mg/kg, d0): 12.6 ± 2.3 ×10^9 · L^−1
- APTT (Male, 100 mg/kg, d14): 15.5 ± 0.5 s
- Fbg (Male, 100 mg/kg, d14): 2.8 ± 0.7 g/L
- LYMPH (Male, 100 mg/kg, d14): 48.0 ± 12.2%
- NEUT (Male, 100 mg/kg, d14): 45.2 ± 12.2%
- WBC (Male, 100 mg/kg, d14): 15.6 ± 6.6 ×10^9 · L^−1
- APTT (Male, 100 mg/kg, d26): 22.5 ± 2.5 s
- Fbg (Male, 100 mg/kg, d26): 4.1 ± 1.2 g/L
- LYMPH (Male, 100 mg/kg, d26): 32.1 ± 9.4%
- NEUT (Male, 100 mg/kg, d26): 60.8 ± 10.5%
- WBC (Male, 100 mg/kg, d26): 20.3 ± 2.9 ×10^9 · L^−1
- APTT (Male, 100 mg/kg, d 56): 17.7 ± 1.0 s
- Fbg (Male, 100 mg/kg, d 56): 1.7 ± 0.3 g/L
- LYMPH (Male, 100 mg/kg, d 56): 52.7 ± 9.0%
- NEUT (Male, 100 mg/kg, d 56): 42.5 ± 11.2%
- WBC (Male, 100 mg/kg, d 56): 14.1 ± 0.2 ×10^9 · L^−1
- APTT (Male, 450 mg/kg, d0): 17.0 ± 2.1 s
- Fbg (Male, 450 mg/kg, d0): 2.2 ± 0.7 g/L
- LYMPH (Male, 450 mg/kg, d0): 48.6 ± 16.8%
- NEUT (Male, 450 mg/kg, d0): 46.9 ± 17.3%
- WBC (Male, 450 mg/kg, d0): 12.0 ± 3.8 ×10^9 · L^−1
- APTT (Male, 450 mg/kg, d14): 16.1 ± 0.8 s
- Fbg (Male, 450 mg/kg, d14): 3.1 ± 1.0 g/L
- LYMPH (Male, 450 mg/kg, d14): 35.6 ± 15.5%
- NEUT (Male, 450 mg/kg, d14): 59.2 ± 16.0%
- WBC (Male, 450 mg/kg, d14): 16.7 ± 6.4 ×10^9 · L^−1
- APTT (Male, 450 mg/kg, d26): 20.0 ± 3.3 s
- Fbg (Male, 450 mg/kg, d26): 4.1 ± 0.6 g/L
- LYMPH (Male, 450 mg/kg, d26): 26.5 ± 12.0 %
- NEUT (Male, 450 mg/kg, d26): 68.6 ± 12.3 %
- WBC (Male, 450 mg/kg, d26): 18.6 ± 5.9 ×10^9 · L^−1
- APTT (Male, 450 mg/kg, d 56): 19.9 ± 0.3 s
- Fbg (Male, 450 mg/kg, d 56): 1.8 ± 0.0 g/L
- LYMPH (Male, 450 mg/kg, d 56): 59.8 ± 22.8%
- NEUT (Male, 450 mg/kg, d 56): 36.7 ± 23.2%
- WBC (Male, 450 mg/kg, d 56): 14.6 ± 0.8 ×10^9 · L^−1
- LYMPH % [1]: decreased
- NEUT % [1]: Increased
- APTT (high-dose females): increases
- Fbg (mid- and high-dose animals): increases
